Source: patent publication US20230372382A1, “USE OF ADENOSINE DIPHOSPHATE RIBOSE FOR ADJUVANT THERAPY WITH RADIATION AND/OR ANTI-CANCER TREATMENT” (PearlsInMires Co., Ltd., priority 2021, published 2023)

Legend:
H1975 cells = experiment: Cancer cell death verification (MTT cell viability); format: cell-based
MDA-MB-231 cells = experiment: as above; format: cell-based
SNU-1 cells = experiment: as above; format: cell-based; conditions: SNU-1, 32 μM ADP-ribose, 24 hours
Method: 3×10^3 SNU-1 or OVCAR-3 cells were cultured in a 96-well plate for 24 hours under conditions of 37° C. and 5% CO2, treated with ADP-ribose at concentrations of 32 μM, respectively, and cultured again for 24 hours under conditions of 37° C. and 5% CO2. Then, 10 μl of 3-(4,5-dimethylthiazol-2-yl)-2,5-diphenyltetrazolium bromide reagent was added to each well and reacted for 1 hour. After the reaction was completed, the reagent was removed, 200 μl of dimethyl sulfoxide was added to each well, and the absorbance was measured to confirm cell viability.

[1] = system: Pancreatic cancer (AsPC-1) cells; experiment: Xenograft model, oral ADP-ribose, tumor volume; format: in vivo, BALB/c nude mice; conditions: AsPC-1 xenograft, 5 times a week, control about 3194.3
Method: Pancreatic cancer (AsPC-1) or kidney cancer (Caki-1) cells (1×10^7 cells) were inoculated into 5-week-old BALB/c nude mice on the back flank, and the mice were grown up to approximately 150 mm^3 of the tumor volume. Then, three concentrations of ADP-ribose were administered subcutaneously, intravenously, and orally 3 times a week. The tumor size was measured every 6 days using a digital caliper, and the changes in tumor volume were compared for each group.
Pancreatic cancer (AsPC-1) cells (1×10^7) were inoculated into 5-week-old BALB/c nude mice on the back flank, and the mice were divided into four groups: the control group (Control) and groups administered orally with 10, 40, and 80 mg/kg of ADP-ribose. When the tumors were grown to a volume of approximately 150 mm^3, each concentration of ADP-ribose was orally administered 5 times a week. The tumor size was measured using a digital caliper, and the results of changes in tumor volume were compared by the group.

[2] = system: Brain cancer (U-87MG) cells; experiment: Cell death by combination treatment with anti-cancer drug (MTT); format: cell-based; conditions: Homo sapiens, ADP-ribose 1.6 μM in combination with bevacizumab, 24 hours, P<0.001
Method: (§1) 3×10^3 Brain cancer (U-87MG), lung cancer (H1975), pancreatic cancer (Aspc-1), liver cancer (Hep G2), breast cancer (MDA-MB-231), and colon cancer (HCT116) cells were cultured in a 96-well plate for 24 hours under conditions of 37° C. and 5% Ca2, respectively. […] After the treatment was terminated, the cells were cultured for 24 hours under conditions of 37° C. and 5% CO2 again, 10 μl of 3-(4,5-dimethylthiazol-2-yl)-2,5-diphenyltetrazolium bromide reagent was added to each well and reacted for 1 hour. After the reaction was completed, the reagent was removed, 200 μl of dimethyl sulfoxide was added to each well, and the absorbance was measured to compare the degree of cell death.
3×10^3 Brain cancer (U-87MG) cells were cultured in a 96-well plate for 24 hours under conditions of 37° C. and 5% CO2, treated with ADP-ribose at a concentration of 1.6 μM and bevacizumab at 15 mM, individually or in combination, and cultured for 24 hours under conditions of 37° C. and 5% CO2 again. Then, 10 μl of 3-(4,5-dimethylthiazol-2-yl)-2,5-diphenyltetrazolium bromide reagent was added to each well and reacted for 1 hour. After the reaction was completed, the reagent was removed, 200 μl of dimethyl sulfoxide was added to each well, and the absorbance was measured to confirm cell viability.

[3] = system: Colon cancer (HCT116) cells; experiment: as above; format: cell-based; conditions: Homo sapiens, HCT-116; HCT116, ADP-ribose 1.6 μM/100 μl in combination with 5-FU 10 μM, 24 hours, P<0.001
Method: as §1
3×10^3 Colon cancer (HCT116) cells were cultured in a 96-well plate for 24 hours under conditions of 37° C. and 5% CO2, treated with ADP-ribose at a concentration of 1.6 μM/100 μl and 5-fluorouracil (5-FU) at 10 μM, individually or in combination, and cultured for 24 hours under conditions of 37° C. and 5% CO2 again. Then, 10 μl of 3-(4,5-dimethylthiazol-2-yl)-2,5-diphenyltetrazolium bromide reagent was added to each well and reacted for 1 hour. After the reaction was completed, the reagent was removed, 200 μl of dimethyl sulfoxide was added to each well, and the absorbance was measured to confirm cell viability.

[4] = system: Brain cancer (U-87MG) cells; experiment: Xenograft model, combination with anti-cancer drug, tumor volume; format: in vivo, BALB/c nude mice; conditions: U-87MG xenograft
Method: Brain (U-87MG), lung (H1975), pancreatic (AsPC-1), or liver (Hep G2) cells (1×10^7 cells) were inoculated into 5-week-old BALB/c nude mice on the back flank, respectively. Then, when tumors were grown to a volume of approximately 150 mm^3, the mice were divided into the control group (control), an anti-cancer drug alone treatment group, and a combination treatment group. […] The tumor size was measured every 6 days using a digital caliper, and the results of changes in tumor volume were compared by the group.
Brain cancer (U-87MG) cells (1×10^7) were inoculated into 5-week-old BALB/c nude mice on the back flank, and the mice were divided into three groups: the control group (Control), single intraperitoneal administration of 25 mg/kg of Avastin (ingredient name: bevacizumab), and combination administration of Avastin+10 mg/kg of ADP-ribose. When the tumors were grown to a volume of approximately 150 mm^3, Avastin was administered intraperitoneally twice a week, and ADP-ribose at 10 mg/kg was injected subcutaneously 3 times a week. The tumor size was measured using a digital caliper, and the results of changes in tumor volume were compared by the group.

U-87MG cells = experiment: Cell death by combination treatment of ADP-ribose and radiation (MTT); format: cell-based; conditions: 8 μM ADP-ribose in combination with 2 Gy radiation, 24 hours, P<0.001, 2 Gy alone about 88%
Method: 3×10^3 Brain cancer (U-87MG) cells were cultured in a 96-well plate for 24 hours under conditions of 37° C. and 5% CO2, treated with 8 μM of ADP-ribose and 2 or 5 Gy dose of radiation individually or in combination, and cultured for 24 hours under conditions of 37° C. and 5% CO2 again. Then, 10 μl of 3-(4,5-dimethylthiazol-2-yl)-2,5-diphenyltetrazolium bromide reagent was added to each well and reacted for 1 hour. After the reaction was completed, the reagent was removed, 200 μl of dimethyl sulfoxide was added to each well, and the absorbance was measured to confirm cell viability.

AsPC-1 cells = experiment: as above; format: cell-based; conditions: AsPC-1, 2 μM ADP-ribose in combination with 2 Gy radiation, 24 hours, P<0.001; 2 Gy alone about 87.3%
Method: (§2) 3×10^3 Brain cancer (U-87MG), lung cancer (H1975), pancreatic cancer (Aspc-1), liver cancer (Hep G2), breast cancer (MDA-MB-231), colon cancer (HCT116), and kidney cancer (Caki-1) cells were cultured in a 96-well plate for 24 hours under conditions of 37° C. and 5% CO2, treated with ADP-ribose or 2 or 5 Gy radiation alone or in combination with ADP-ribose and 2 Gy radiation, and cultured for 24 hours under conditions of 37° C. and 5% CO2 again. Then, 10 μl of 3-(4,5-dimethylthiazol-2-yl)-2,5-diphenyltetrazolium bromide reagent was added to each well and reacted for 1 hour. After the reaction was completed, the reagent was removed, 200 μl of dimethyl sulfoxide was added to each well, and the absorbance was measured to compare the degree of cell death.
3×10^3 AsPC-1 cells were cultured in a 96-well plate for 24 hours under conditions of 37° C. and 5% CO2, treated with 2 μM of ADP-ribose and 2 or 5 Gy dose of radiation individually or in combination, and cultured for 24 hours under conditions of 37° C. and 5% CO2 again. Then, 10 μl of 3-(4,5-dimethylthiazol-2-yl)-2,5-diphenyltetrazolium bromide reagent was added to each well and reacted for 1 hour. After the reaction was completed, the reagent was removed, 200 μl of dimethyl sulfoxide was added to each well, and the absorbance was measured to confirm cell viability.

Hep G2 cells = experiment: as above; format: cell-based; conditions: Hep G2, 4 μM ADP-ribose in combination with 2 Gy radiation, 24 hours, P<0.001; 2 Gy alone about 82.3%
Method: as §2
3×10^3 Hep G2 cells were cultured in a 96-well plate for 24 hours under conditions of 37° C. and 5% CO2, treated with 4 μM of ADP-ribose and 2 or 5 Gy dose of radiation individually or in combination, and cultured for 24 hours under conditions of 37° C. and 5% CO2 again. Then, 10 μl of 3-(4,5-dimethylthiazol-2-yl)-2,5-diphenyltetrazolium bromide reagent was added to each well and reacted for 1 hour. After the reaction was completed, the reagent was removed, 200 μl of dimethyl sulfoxide was added to each well, and the absorbance was measured to confirm cell viability.

HCT116 cells = experiment: as above; format: cell-based; conditions: HCT116, 16 μM ADP-ribose in combination with 2 Gy radiation, 24 hours, P<0.001; 2 Gy alone about 90.3%
Method: as §2
3×10^3 HCT116 cells were cultured in a 96-well plate for 24 hours under conditions of 37° C. and 5% CO2, treated with 16 μM of ADP-ribose and 2 or 5 Gy dose of radiation individually or in combination, and cultured for 24 hours under conditions of 37° C. and 5% CO2 again. Then, 10 μl of 3-(4,5-dimethylthiazol-2-yl)-2,5-diphenyltetrazolium bromide reagent was added to each well and reacted for 1 hour. After the reaction was completed, the reagent was removed, 200 μl of dimethyl sulfoxide was added to each well, and the absorbance was measured to confirm cell viability.

[5] = system: Brain cancer (U-87MG) cells; experiment: Xenograft model, combination with radiation, tumor volume; format: in vivo, BALB/c nude mice; conditions: U-87MG xenograft
Method: Brain cancer (U-87MG), pancreatic cancer (AsPC-1), breast cancer (MDA-MB-231), or kidney cancer (Caki-1) cells (1×10^7 cells) were inoculated into 5-week-old BALB/c nude mice on the back flank, respectively. Then, when tumors were grown to a volume of approximately 150 mm^3, the mice were divided into three groups: the control group (Control), 2 Gy dose of radiation alone, and a combination administration of 2 Gy dose of radiation+10 mg/kg of ADP-ribose (subcutaneous administration, 3 times a week). The irradiation was performed with an X-Rad 320 irradiator (Precision X-ray, North Branford, CT, USA), wherein the mice were placed by maintaining an appropriate distance from the radiation source for irradiation with a predetermined radiation dose. A lead shield was used to protect the body parts or organs from exposure to radiation, other than the cancerous part of the mouse. The irradiation was performed with a total of 2 Gy of radiation fractionated into two doses of 1 Gy each (for 2 days) at a dose rate of 300 kVp and 150 cGy/min using an X-ray beam filter composed of 12.5 mA and 2.0 mm Al. The tumor size was measured every 6 days using a digital caliper, and the results of changes in tumor volume were compared by the group.
Brain cancer (U-87MG) cells (1×10^7) were inoculated into 5-week-old BALB/c nude mice on the back flank, and the mice were divided into three groups: the control group, 2 Gy dose of radiation alone, and combination administration of 2 Gy dose radiation+10 mg/kg of ADP-ribose. When the tumors were grown to a volume of approximately 150 mm^3, 2 Gy dose of radiation was irradiated twice at 1 Gy each, and 10 mg/kg of ADP-ribose was injected subcutaneously 3 times a week. The tumor size was measured using a digital caliper, and the results of changes in tumor volume were compared by the group.

[6] = ADP-ribose 10 mg/kg s.c. in combination with Avastin 25 mg/kg, P<0.001
[7] = ADP-ribose 10 mg/kg s.c. + 2 Gy radiation, P<0.001

## Nc1ncnc2c1ncn2[C@@H]1O[C@H](COP(=O)(O)OP(=O)(O)OC[C@H]2O[C@@H](O)C(O)C2O)C(O)C1O (stereo partly shown) [ADP-ribose, adenosine diphosphate ribose]
H1975 cells; H1975, 24 hours, MTT
  maximum lethal dose (concentration at which almost all cells were killed): 32 µM
H1975 cells; H1975, ADP-ribose treated vs control, FIG. 3A
  cancer cell growth under a microscope: inhibited from growing and killed
H1975 cells; Homo sapiens, NCI-H1975, 24 h, read-out: half-lethal dose (concentration at which about half of the cells were killed)
  IC50: ~2 µM
MDA-MB-231 cells; Homo sapiens, MDA-MB-231, 24 h, read-out: half-lethal dose (concentration at which about half of the cells were killed)
  IC50: ~16 µM
MDA-MB-231 cells; MDA-MB-231, 24 hours, MTT
  maximum lethal dose (concentration at which almost all cells were killed): 32 µM
MDA-MB-231 cells; MDA-MB-231, ADP-ribose treated vs control, FIG. 6A
  cancer cell growth under a microscope: inhibited from growing and killed
SNU-1 cells
  cell death compared to the control group: killed significantly
[1]; 10 mg/kg oral
  final tumor volume: 1798.6 mm^3
[1]; 40 mg/kg oral
  final tumor volume: 1175.9 mm^3
[1]; 80 mg/kg oral
  final tumor volume: 1056.9 mm^3
[2]
  viability at 1.6 µM: ~18%
[3]
  viability at 1.6 µM: ~12%
[4]; [6]
  reduction of tumor volume compared to the control group: about 87%
  reduction of tumor volume compared to the group treated with Avastin alone: about 79%
[4]; ADP-ribose 10 mg/kg subcutaneous 3 times a week in combination with Avastin 25 mg/kg, control about 2527.1
  final tumor volume: about 334.5 mm^3
U-87MG cells
  survival rate of cancer cells: about 12.3%
AsPC-1 cells
  survival rate of cancer cells: about 8%
Hep G2 cells
  survival rate of cancer cells: about 7.3%
HCT116 cells
  survival rate of cancer cells: about 14%
[5]; [7]
  reduction of tumor volume compared to the control group: about 71.5%
  reduction of tumor volume compared to the group treated with 2 Gy dose of radiation alone: about 50.7%
[5]; ADP-ribose 10 mg/kg subcutaneous 3 times a week + 2 Gy radiation, control about 2545.2, 2 Gy alone about 1472.1
  final tumor volume: about 725.2 mm^3
